Where a name gives a salt, the structure may show the parent alone.
How the values were obtained:
panelists [1] = assay: Sensory panel sweetness matching against sucrose references (SEV) in milk and water media, Example 1; format: in vivo, human; conditions: for sweetness enhancement of water/calcium solution over monatin in water alone: c. 120 mg calcium/100 ml as Gluconal CAL
Experimental: (§1) As used herein, “sucrose equivalency value”, or SEV, is a measure of sweetness. The SEV is the concentration (% w/v) of a sucrose solution that gives a degree of sweetness that is perceived to be the same degree of sweetness as that of a test sample. For purposes of this disclosure, the SEV of an aqueous or dairy solution containing monatin is determined through comparison of the monatin-containing solution to a series of sucrose containing solutions prepared in the same medium (see Example 1).
Monatin compositions were prepared by adding monatin to each of the solutions below at 20 ppm and 40 ppm. Sucrose reference compositions were also prepared. • Milk (0% fat) • Milk (0% fat) adjusted to pH 4.6 with lactic acid • Milk (2% fat) • Milk (3.6% fat) • Water • Water, adjusted to pH 4.6 with lactic acid • Water containing c. 120 mg calcium/100 ml (Ca^2+ added as Gluconal CAL® soluble salt) • Water containing 4.5% lactose • Water containing c. 120 mg calcium/100 mL plus 4.5% lactose • Water containing 3% milk protein isolate (Davisco BiPro)
(§2) Panelists (8-10) were presented with a range (2-12%; w/v) of sucrose reference solutions prepared in each of the mediums listed above as well as two monatin test solutions at 20 ppm and 40 ppm prepared in the same manner. The panelists were instructed to taste the test sample and then to identify the reference sample that matched the perceived sweetness of the test sample. If the sweetness of the test sample was judged to fall between that of two references, panelists were asked to estimate sweetness to one decimal point. Panelists evaluated each sample in duplicate. All results for each test sample were averaged.

[2] = Sweetness match of monatin-sweetened vanilla ice cream to 13% sucrose target; format: in vivo
Experimental: A vanilla ice cream sweetened with about 13% sucrose was prepared by conventional methods common to one skilled in the art of ice cream manufacturing to serve as a sweetness target. Then a set of seven (7) ice cream samples were sweetened with R,R-monatin monopotassium salt using the ingredients listed in Table 13. The amount of monatin in the seven samples was about 35 ppm, about 40 ppm, about 45 ppm, about 50 ppm, about 55 ppm, about 60 ppm and about 70 ppm. Each of the seven samples of monatin-sweetened ice cream were compared to the target ice cream sample containing 13% sucrose. The monatin-sweetened ice cream that most closely matched the sweetness of the target sucrose sample was chosen.

panelists [3] = assay: Concentration-response of monatin sweetness (SEV) in milk and diluted yogurt, Example 2; format: in vivo, human
Experimental: Monatin, aspartame and sucralose samples were prepared in milk (2% fat) and diluted with plain, fat-free yogurt. Sucrose reference solutions were prepared in solutions of the same medium.
as §2, with “and a single” for “prepared in each of the mediums listed above as well as two monatin”, “sample. They” for “solutions at 20 ppm and 40 ppm prepared in the same manner. The panelists”
Sweetener test samples and sucrose references were prepared as solutions in the following mediums: • (1) Milk (2% fat) at pH 6.8. • (2) A diluted plain (unsweetened and unflavored) yogurt was sheared with water (80 parts yogurt and 20 parts water) to yield an acidic solution based on fermented milk with a final pH of 4.6.

[4] = Sweetness of monatin stereoisomers relative to sucrose by weight (from SEV); format: in vivo; conditions: general statement of the description; listed as R,R stereoisomer of monatin, mono potassium salt
Experimental: as §1
Monatin-containing compositions are described herein as being “X” times as sweet as sucrose. The various stereoisomers of monatin are also described as being “X” times sweeter than sucrose. These values are determined from the SEV of the compositions.

panelists [5] = assay: Three-member panel rating (0-9 scale) of difference in sweetness due to calcium at <=200 ppm; format: in vivo, human; set-up: key: 0 = none; 1 = trace; 2 = faint; 3 = slight; 4 = mild; 5 = moderate; 6 = definite; 7 = strong; 8 = very strong; 9 = extreme; conditions: 20 ppm monatin in water, vs control without calcium
Experimental: The samples in Table 5 were prepared by adding 20 ppm of monatin to water in combination with an amount of calcium ranging between 12.5 ppm and 200 ppm. A control sample having 20 ppm of monatin and no calcium was also used. The monatin was in the R,R, form and prepared through a biosynthetic pathway as disclosed in U.S. Patent Publication No. 2005/282260. A three-member panel was used to evaluate sweetness, but instead of quantifying the sample in terms of sweetness equivalency (SEV), the panelists assigned the sample a number between 0 and 9 (see description of scale under Table 5).

[6] = Sweetness match of monatin-sweetened chocolate milk to 10% sucrose target; format: in vivo
Experimental: A chocolate milk composition sweetened with 42 DE high fructose corn syrup (HFCS) to about 10% sucrose was prepared by conventional methods common to one skilled in the art of flavored milk manufacturing to serve as a sweetness target. The amount of monatin in the five samples was about 25 ppm, about 30 ppm, about 35 ppm, about 40 ppm and about 45 ppm. Each of the five samples of monatin-sweetened milk were compared to the target milk sample containing 10% sucrose. The monatin-sweetened milk that most closely matched the sweetness of the target sucrose sample was chosen.

[7] = Diluted Yogurt (pH 4.6), monatin 10 ppm
[8] = Diluted Yogurt (pH 4.6), monatin 20 ppm
[9] = Diluted Yogurt (pH 4.6), monatin 30 ppm
[10] = Diluted Yogurt (pH 4.6), monatin 40 ppm
[11] = Diluted Yogurt (pH 4.6), monatin 50 ppm
[12] = Milk, 2% fat (pH 6.8), monatin 5 ppm
[13] = Milk, 2% fat (pH 6.8), monatin 10 ppm
[14] = Milk, 2% fat (pH 6.8), monatin 20 ppm
[15] = Milk, 2% fat (pH 6.8), monatin 30 ppm
[16] = Milk, 2% fat (pH 6.8), monatin 40 ppm
[17] = Milk, 2% fat (pH 6.8), monatin 50 ppm

NC(CC(O)(Cc1c[nH]c2ccccc12)C(=O)O)C(=O)O (stereo not drawn) [R,R-Monatin, 2R,4R-Monatin mono potassium salt]
decrease in sweetness of water solution having 4.5% lactose compared to water solution only containing monatin (panelists [1]; 20 ppm monatin): 22% | sweetness enhancement of 0% fat milk at pH 4.6 over 0% fat milk at pH 6.4 (panelists [1]; 20 ppm monatin): 13% | SEV (panelists [1]; 20 ppm monatin, Milk (0% fat), pH 6.4): 5.3 %; w/v | SEV (panelists [1]; 20 ppm monatin, Milk (0% fat; yogurt + milk), pH 4.6): 6.0 %; w/v | SEV (panelists [1]; 20 ppm monatin, Milk (2% fat), pH 6.4): 5.6 %; w/v | SEV (panelists [1]; 20 ppm monatin, Milk (3.6% fat), pH 6.4): 5.2 %; w/v | SEV (panelists [1]; 20 ppm monatin, Water + 120 mg/100 mL calcium (Gluconal CAL), pH 7.6): 6.4 %; w/v | SEV (panelists [1]; 20 ppm monatin, Water + 3% whey protein isolate, pH 7.8): 5.2 %; w/v | SEV (panelists [1]; 20 ppm monatin, Water + 4.5% lactose, pH 7.8): 4.0 %; w/v | SEV (panelists [1]; 20 ppm monatin, Water + calcium + lactose, pH 7.8): 5.6 %; w/v | SEV (panelists [1]; 20 ppm monatin, Water + lactic acid, pH 4.6): 6.0 %; w/v | SEV (panelists [1]; 20 ppm monatin, Water, pH 7.8): 5.1 %; w/v | sweetness enhancement of water/calcium solution over monatin in water alone (panelists [1]; 20 ppm monatin): 25% | decrease in sweetness of water solution having 4.5% lactose compared to water solution only containing monatin (panelists [1]; 40 ppm monatin): 18% | sweetness enhancement of 0% fat milk at pH 4.6 over 0% fat milk at pH 6.4 (panelists [1]; 40 ppm monatin): 16% | SEV (panelists [1]; 40 ppm monatin, Milk (0% fat), pH 6.4): 8.5 %; w/v | SEV (panelists [1]; 40 ppm monatin, Milk (0% fat; yogurt + milk), pH 4.6): 9.9 %; w/v | SEV (panelists [1]; 40 ppm monatin, Milk (2% fat), pH 6.4): 8.7 %; w/v | SEV (panelists [1]; 40 ppm monatin, Milk (3.6% fat), pH 6.4): 8.3 %; w/v | SEV (panelists [1]; 40 ppm monatin, Water + 120 mg/100 mL calcium (Gluconal CAL), pH 7.6): 9.0 %; w/v | SEV (panelists [1]; 40 ppm monatin, Water + 3% whey protein isolate, pH 7.8): 7.6 %; w/v | SEV (panelists [1]; 40 ppm monatin, Water + 4.5% lactose, pH 7.8): 6.3 %; w/v | SEV (panelists [1]; 40 ppm monatin, Water + calcium + lactose, pH 7.8): 8.0 %; w/v | SEV (panelists [1]; 40 ppm monatin, Water + lactic acid, pH 4.6): 7.9 %; w/v | SEV (panelists [1]; 40 ppm monatin, Water, pH 7.8): 7.7 %; w/v | sweetness enhancement of water/calcium solution over monatin in water alone (panelists [1]; 40 ppm monatin): 17% | impact of milk fat on relative sweetness values of monatin solutions prepared from milk (panelists [1]; milk 0%, 2%, 3.6% fat): essentially unaffected | monatin concentration that most closely matched the sweetness of ice cream sweetened to 13% sucrose [2]: about 45 ppm | times as sweet as sucrose [2]: about 2800 times | Relative Sweetness (panelists [3]; [7]): 4,000 ×sucrose | SEV (panelists [3]; [7]): 4.0 % sucrose; w/v | Relative Sweetness (panelists [3]; [8]): 3,300 ×sucrose | SEV (panelists [3]; [8]): 6.6 % sucrose; w/v | Relative Sweetness (panelists [3]; [9]): 3,100 ×sucrose | SEV (panelists [3]; [9]): 9.3 % sucrose; w/v | Relative Sweetness (panelists [3]; [10]): 2,625 ×sucrose | SEV (panelists [3]; [10]): 10.5 % sucrose; w/v | Relative Sweetness (panelists [3]; [11]): 2,280 ×sucrose | SEV (panelists [3]; [11]): 11.4 % sucrose; w/v | Relative Sweetness (panelists [3]; [12]): 4,000 ×sucrose | SEV (panelists [3]; [12]): 2.0 % sucrose; w/v | Relative Sweetness (panelists [3]; [13]): 3,000 ×sucrose | SEV (panelists [3]; [13]): 3.0 % sucrose; w/v | Relative Sweetness (panelists [3]; [14]): 2,750 ×sucrose | SEV (panelists [3]; [14]): 5.5 % sucrose; w/v | Relative Sweetness (panelists [3]; [15]): 2,270 ×sucrose | SEV (panelists [3]; [15]): 6.8 % sucrose; w/v | Relative Sweetness (panelists [3]; [16]): 2,100 ×sucrose | SEV (panelists [3]; [16]): 8.4 % sucrose; w/v | Relative Sweetness (panelists [3]; [17]): 1,780 ×sucrose | SEV (panelists [3]; [17]): 8.9 % sucrose; w/v | times sweeter than sucrose by weight [4]: 2000-2400 times | Difference in Sweetness Due to Calcium (panelists [5]; calcium 12.5 ppm): 1 | Difference in Sweetness Due to Calcium (panelists [5]; calcium 25 ppm): 3 | Difference in Sweetness Due to Calcium (panelists [5]; calcium 50 ppm): 4 | Difference in Sweetness Due to Calcium (panelists [5]; calcium 100 ppm): 5 | Difference in Sweetness Due to Calcium (panelists [5]; calcium 200 ppm): 6 | monatin concentration that most closely matched the sweetness of milk sweetened to 10% sucrose [6]: about 35 ppm | times as sweet as sucrose [6]: about 2800 times

Source: patent publication US20120009320A1, “COMPOSITIONS COMPRISING MONATIN AND CALCIUM” (priority 2009, published 2012)
